Data set [1] has as its system A549. Kind of data set: Cytotoxicity against A549 cells after 72 hrs by MTT assay. The format is cell-based. Conditions: human, a549, 72 h; call rule not given here. Background: Tetrazolium dyes change colour on reduction, which living cells bring about.
Data set [2] concerns HL-60. Description: Cytotoxicity against HL60 cells after 72 hrs by MTT assay. The data set is classed as cell-based, Homo sapiens.
The nature of data set [3]: Cytotoxicity against BEL-7402 cells after 72 hrs by MTT assay. The data set is classed as cell-based, Homo sapiens.
The test system of data set [4] is P388. Kind of data set: Cytotoxicity against P388 cells after 72 hrs by MTT assay. The data set is classed as cell-based, Mus musculus. Conditions: for IC50: Mus musculus, P388, 72 h.

Experimental findings from ChEMBL document CHEMBL1139882, “Aurantiomides A-C, quinazoline alkaloids from the sponge-derived fungus Penicillium aurantiogriseum SP0-19” (J Nat Prod, 2007) are described below.

Converted amounts (≈) assume the structure as drawn.

`CO[C@@]1(CC(C)C)NC(=O)[C@H](CCC(N)=O)n2c1nc1ccccc1c2=O` [AURANTIOMIDE A]: the Activity entry is “Not Active” in data set [1]; “Not Active” in data set [2] (human, hl-60, 72 h); “Not Active” in data set [3] (human, bel-7402, 72 h); “Not Active” in data set [4] (mouse, p388, 72 h).
For orientation: IC50 means the concentration that gives 50% inhibition. A higher IC50 goes with lower potency. On to `CC(C)/C=C1\NC(=O)[C@H](CCC(N)=O)n2c1nc1ccccc1c2=O` [AURANTIOMIDE C], for which the IC50 in data set [3] (Homo sapiens, Bel-7402, 72 h) was 48 mg/L (≈ 141 µM); in data set [4] it was 48 mg/L (≈ 141 µM).
Regarding `CC(C)C[C@]1(O)NC(=O)[C@H](CCC(N)=O)n2c1nc1ccccc1c2=O` [AURANTIOMIDE B], the half-inhibitory concentration (IC50) in data set [2] (Homo sapiens, HL-60, 72 h) was determined as 52 mg/L (≈ 145 µM); in data set [4], 54 mg/L (≈ 151 µM).
